# Values of other authors, collected in patent US9492404B2, “Compositions and methods for treatment of taupathy” (Revalesio Corporation, priority 2010, dated 2016).
# Tested on: primary progressive MS
# Conditions: 943 patients with primary progressive MS
substance,measurement,value
Glatiramer acetate,progression of disability and the disease,failed to halt
